This is an account of results in ChEMBL document CHEMBL5291721, “A preclinical secondary pharmacology resource illuminates target-adverse drug reaction associations of marketed drugs” (Nat Commun, 2023).

The term AC50 denotes the concentration giving half of the maximal activity seen. The low end stands for activity at low concentration, the high end for activity only at high concentration.

One test concerns the target Cannabinoid receptor 1 (Homo sapiens, UniProt P21554). The test is classed as functional, cell-based.
Test [1] has as its target T1, Alpha-2C adrenergic receptor (Homo sapiens, UniProt P18825).
T1 sequence (P18825 whole entry): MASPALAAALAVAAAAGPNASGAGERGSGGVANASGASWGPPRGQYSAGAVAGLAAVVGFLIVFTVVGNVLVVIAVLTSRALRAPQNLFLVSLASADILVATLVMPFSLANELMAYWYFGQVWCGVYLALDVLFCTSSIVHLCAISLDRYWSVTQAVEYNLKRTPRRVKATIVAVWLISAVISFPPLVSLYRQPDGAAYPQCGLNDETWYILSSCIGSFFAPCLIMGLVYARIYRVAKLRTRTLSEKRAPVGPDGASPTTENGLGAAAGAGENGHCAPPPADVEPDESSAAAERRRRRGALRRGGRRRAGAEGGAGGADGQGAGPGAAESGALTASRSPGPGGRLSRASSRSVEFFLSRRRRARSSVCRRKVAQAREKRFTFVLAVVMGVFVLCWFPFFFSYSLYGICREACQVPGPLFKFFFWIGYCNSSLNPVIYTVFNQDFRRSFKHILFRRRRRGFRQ
The test is classed as functional.

For the next test, the target named is Histamine H1 receptor (Homo sapiens, UniProt P35367).
The target of test [2] is 5-hydroxytryptamine receptor 2B (Homo sapiens, UniProt P41595). Type of test: functional, cell-based.
Test [3] concerns the target T2, Muscarinic acetylcholine receptor M1 (Homo sapiens, UniProt P11229).
T2 sequence (P11229 whole entry): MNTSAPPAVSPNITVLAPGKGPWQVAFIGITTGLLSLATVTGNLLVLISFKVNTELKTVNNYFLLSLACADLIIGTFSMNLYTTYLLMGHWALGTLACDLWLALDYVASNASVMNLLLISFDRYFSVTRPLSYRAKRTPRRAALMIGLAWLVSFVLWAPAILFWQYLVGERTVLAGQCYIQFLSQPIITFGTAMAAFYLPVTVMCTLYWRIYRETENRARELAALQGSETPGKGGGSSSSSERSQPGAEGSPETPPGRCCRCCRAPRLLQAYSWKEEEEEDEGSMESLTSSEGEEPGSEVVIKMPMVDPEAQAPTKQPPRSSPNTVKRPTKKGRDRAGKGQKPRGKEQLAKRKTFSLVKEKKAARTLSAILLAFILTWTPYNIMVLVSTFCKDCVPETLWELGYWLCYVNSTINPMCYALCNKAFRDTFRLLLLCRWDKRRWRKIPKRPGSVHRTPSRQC
The test is classed as functional.

Test [4] concerns the target Glutamate receptor ionotropic, NMDA 1 (Rattus norvegicus, UniProt P35439).
In test [5] the target is T3, Cholecystokinin receptor type A (Homo sapiens, UniProt P32238).
T3 sequence (P32238 whole entry): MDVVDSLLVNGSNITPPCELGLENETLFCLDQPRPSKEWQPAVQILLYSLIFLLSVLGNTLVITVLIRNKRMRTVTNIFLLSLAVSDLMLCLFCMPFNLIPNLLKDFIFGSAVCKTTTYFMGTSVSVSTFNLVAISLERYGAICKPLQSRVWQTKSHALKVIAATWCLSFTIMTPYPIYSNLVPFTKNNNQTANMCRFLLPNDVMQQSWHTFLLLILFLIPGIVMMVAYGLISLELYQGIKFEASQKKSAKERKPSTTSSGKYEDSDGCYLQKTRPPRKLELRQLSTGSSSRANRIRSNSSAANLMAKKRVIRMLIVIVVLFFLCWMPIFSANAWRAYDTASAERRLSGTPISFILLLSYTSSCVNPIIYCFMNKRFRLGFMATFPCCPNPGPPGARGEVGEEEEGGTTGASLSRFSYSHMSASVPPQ

In test [6] the target is T4, 5-hydroxytryptamine receptor 3A (Homo sapiens, UniProt P46098).
T4 sequence (P46098 whole entry): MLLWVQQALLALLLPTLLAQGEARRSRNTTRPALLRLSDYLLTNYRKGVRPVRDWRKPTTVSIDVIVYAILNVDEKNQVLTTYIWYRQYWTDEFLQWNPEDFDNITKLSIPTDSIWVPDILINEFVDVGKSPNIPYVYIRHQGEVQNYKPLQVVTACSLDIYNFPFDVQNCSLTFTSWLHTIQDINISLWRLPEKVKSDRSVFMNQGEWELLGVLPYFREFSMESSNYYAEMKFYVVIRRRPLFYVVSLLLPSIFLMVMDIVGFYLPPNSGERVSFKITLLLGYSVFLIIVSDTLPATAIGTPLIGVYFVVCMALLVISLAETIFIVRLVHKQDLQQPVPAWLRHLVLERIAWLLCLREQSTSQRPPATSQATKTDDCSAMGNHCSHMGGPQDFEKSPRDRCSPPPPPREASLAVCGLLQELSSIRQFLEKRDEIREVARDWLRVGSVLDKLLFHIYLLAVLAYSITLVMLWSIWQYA
The test is classed as functional.

The target in another test is T5, Adenosine receptor A3 (Homo sapiens, UniProt P0DMS8).
T5 sequence (P0DMS8 whole entry): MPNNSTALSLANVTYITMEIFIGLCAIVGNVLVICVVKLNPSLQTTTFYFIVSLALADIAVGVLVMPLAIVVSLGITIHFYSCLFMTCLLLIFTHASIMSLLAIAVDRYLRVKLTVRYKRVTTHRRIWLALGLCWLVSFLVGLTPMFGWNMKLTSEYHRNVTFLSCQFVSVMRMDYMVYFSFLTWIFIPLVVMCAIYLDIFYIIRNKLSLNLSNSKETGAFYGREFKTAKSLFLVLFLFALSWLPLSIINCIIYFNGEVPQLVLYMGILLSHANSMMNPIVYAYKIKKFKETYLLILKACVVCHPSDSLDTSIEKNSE

Test [7] has as its target T6, Muscarinic acetylcholine receptor M2 (Homo sapiens, UniProt P08172).
T6 sequence (P08172 whole entry): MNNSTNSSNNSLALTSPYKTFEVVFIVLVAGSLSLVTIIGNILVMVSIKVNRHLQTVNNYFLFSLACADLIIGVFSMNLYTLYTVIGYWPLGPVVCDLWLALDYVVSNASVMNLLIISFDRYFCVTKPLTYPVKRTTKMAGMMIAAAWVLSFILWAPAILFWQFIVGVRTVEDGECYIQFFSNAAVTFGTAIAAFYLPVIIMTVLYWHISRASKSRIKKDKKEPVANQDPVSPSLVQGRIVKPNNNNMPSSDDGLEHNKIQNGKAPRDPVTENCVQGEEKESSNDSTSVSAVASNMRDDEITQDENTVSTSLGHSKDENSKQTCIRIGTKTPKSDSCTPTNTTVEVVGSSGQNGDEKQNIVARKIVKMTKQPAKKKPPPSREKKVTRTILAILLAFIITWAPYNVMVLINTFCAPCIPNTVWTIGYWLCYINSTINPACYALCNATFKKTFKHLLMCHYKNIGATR
Type of test: functional, cell-based.
Note: assay procedure not described here.

Sequence of 5-hydroxytryptamine receptor 2B (P41595 whole entry): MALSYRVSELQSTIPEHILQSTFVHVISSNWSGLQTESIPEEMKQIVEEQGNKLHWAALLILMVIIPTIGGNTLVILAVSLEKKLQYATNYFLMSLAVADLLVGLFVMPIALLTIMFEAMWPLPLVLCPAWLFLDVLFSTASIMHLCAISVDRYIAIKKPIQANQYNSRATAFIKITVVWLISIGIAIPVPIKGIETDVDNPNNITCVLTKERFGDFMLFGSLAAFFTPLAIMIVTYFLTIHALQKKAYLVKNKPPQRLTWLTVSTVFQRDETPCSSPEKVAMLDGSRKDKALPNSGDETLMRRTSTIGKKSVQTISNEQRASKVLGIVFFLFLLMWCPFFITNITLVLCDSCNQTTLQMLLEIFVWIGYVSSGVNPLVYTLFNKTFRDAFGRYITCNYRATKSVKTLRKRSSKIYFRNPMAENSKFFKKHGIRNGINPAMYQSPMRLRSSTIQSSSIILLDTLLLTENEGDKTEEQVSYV
Sequence of Histamine H1 receptor (P35367 whole entry): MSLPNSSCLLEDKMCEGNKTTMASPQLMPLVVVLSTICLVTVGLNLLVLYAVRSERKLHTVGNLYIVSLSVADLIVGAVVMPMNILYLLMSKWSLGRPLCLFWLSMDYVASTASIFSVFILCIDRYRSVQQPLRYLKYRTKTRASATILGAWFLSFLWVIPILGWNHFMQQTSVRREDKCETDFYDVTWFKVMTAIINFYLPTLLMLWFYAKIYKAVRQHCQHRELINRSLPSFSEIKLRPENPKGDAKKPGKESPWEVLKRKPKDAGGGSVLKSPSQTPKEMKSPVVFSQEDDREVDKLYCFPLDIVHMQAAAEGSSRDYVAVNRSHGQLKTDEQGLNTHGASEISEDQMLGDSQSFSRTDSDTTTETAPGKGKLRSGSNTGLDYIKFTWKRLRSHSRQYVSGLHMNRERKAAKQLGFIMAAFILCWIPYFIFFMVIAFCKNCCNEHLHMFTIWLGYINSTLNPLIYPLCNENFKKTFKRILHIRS
Sequence of Cannabinoid receptor 1 (P21554 whole entry): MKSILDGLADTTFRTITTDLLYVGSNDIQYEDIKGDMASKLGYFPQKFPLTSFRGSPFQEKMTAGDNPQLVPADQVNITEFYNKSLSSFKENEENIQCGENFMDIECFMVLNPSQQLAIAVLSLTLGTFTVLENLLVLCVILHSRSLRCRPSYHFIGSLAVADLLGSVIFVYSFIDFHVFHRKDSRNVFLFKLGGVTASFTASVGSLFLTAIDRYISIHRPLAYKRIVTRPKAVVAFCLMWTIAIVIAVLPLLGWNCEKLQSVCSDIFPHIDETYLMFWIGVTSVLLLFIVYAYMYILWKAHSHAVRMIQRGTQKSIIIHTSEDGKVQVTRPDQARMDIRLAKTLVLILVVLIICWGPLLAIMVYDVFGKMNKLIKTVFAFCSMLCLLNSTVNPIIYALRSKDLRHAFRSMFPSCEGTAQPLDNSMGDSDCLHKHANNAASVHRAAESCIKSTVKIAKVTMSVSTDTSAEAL

On to `CC[C@@H](C(N)=O)N1CCCC1=O`, for which the concentration at half-maximal activity (AC50) at Cannabinoid receptor 1 was more than 30 µM; in [1] it was more than 30 µM; at Histamine H1 receptor, more than 10 µM; in test [2], more than 30 µM; in test [3] it was more than 30 µM; in [4] it was more than 30 µM. Moreover, the half-maximal activity concentration (AC50) (in test [5]; in test [6]; at Adenosine receptor A3; in test [7]) was more than 30 µM each time.

With `COc1ccccc1N1CCN(CC(O)COc2cccc3ccccc23)CC1` (centres undefined) [NAFTOPIDIL], the AC50 on Cannabinoid receptor 1 was more than 30 µM; in test [1] it was 0.2 µM; at Histamine H1 receptor it was 0.75 µM; in test [2], more than 30 µM; in test [3], more than 30 µM; in [4], more than 30 µM. The AC50 (in test [6]; at Adenosine receptor A3; in test [7]) was more than 30 µM in each case.

On to `C=CCN1C[C@H](C(=O)N(CCCN(C)C)C(=O)NCC)C[C@@H]2c3cccc4[nH]cc(c34)C[C@H]21` [CABERGOLINE], for which the half-maximal activity concentration (AC50) is more than 30 µM on Cannabinoid receptor 1; 0.3 µM in test [1]; 6.8 µM on Histamine H1 receptor; 0.189 µM in [2]; more than 10 µM in test [3]; more than 10 µM in test [4]. Moreover, the AC50 in [5] is more than 10 µM; in test [6], more than 30 µM; at Adenosine receptor A3, more than 10 µM; in [7], more than 30 µM.

With `COc1ccc(C(=O)Nc2ccccc2CCC2CCCCN2C)cc1` (centres undefined) [ENCAINIDE], the AC50 on Cannabinoid receptor 1 is more than 30 µM; in test [1] it was more than 10 µM; at Histamine H1 receptor, more than 10 µM; in [2], more than 10 µM; in [3] it was more than 10 µM; in test [4], more than 10 µM. Moreover, the AC50 in [5] was more than 30 µM; in test [6], more than 30 µM; at Adenosine receptor A3, more than 30 µM; in test [7], more than 10 µM.

As to `CCOc1ccccc1OCC1CNCCO1` (centres undefined) [VILOXAZINE], the AC50 is more than 30 µM on Cannabinoid receptor 1; more than 10 µM in [1]; more than 10 µM on Histamine H1 receptor; more than 10 µM in [2]; more than 10 µM in test [3]; more than 10 µM in test [4]. The concentration at half-maximal activity (AC50) was more than 30 µM in test [5], more than 10 µM in test [6], more than 30 µM on Adenosine receptor A3 and more than 10 µM in test [7].

For `CN(C)CCc1c[nH]c2ccc(C[C@H]3COC(=O)N3)cc12` [ZOLMITRIPTAN], the half-maximal activity concentration (AC50) (on Cannabinoid receptor 1; in test [1]; on Histamine H1 receptor; in test [2]; in [3]; in test [4]) was more than 30 µM in each case. The AC50 (in test [5]; in [6]; at Adenosine receptor A3; in [7]) was more than 30 µM in each case.
